Laboratory results from paper PMC12525728, “Safety, Pharmacokinetics, Translational and Molecular Mechanistic Insights on the Prostate Cancer Recurrence Suppressor Pseurotin A” (Molecules, 2025).

System: Swiss albino mice
Assay: Hematological and biochemical evaluation after 90-day daily oral dosing
Type: in vivo
Details: for HCT / HGB / MCHC / MCV / PLT / RBC-H / WBC-H: mean ± SD; for ALP, plasma / ALT, plasma / AST, plasma / BUN, plasma / CREAT (creatinine), plasma / GLU (glucose), plasma: mean ± SEM
Method: For the 90-day daily oral dosing sub-chronic toxicity study, twenty male and twenty female healthy 8-week-old Swiss albino mice were randomly selected and randomized to […] (n = 5/sex/group). Mice received free access to purified drinking water and high-fat diet (HFD) pelleted rodent chow (11.4% total fat, no. 7004, Envigo/Teklad, Madison, WI, USA) until the day before sacrifice, at which time they were fasted for 8 h and allowed only free access to drinking water. Daily doses of PsA (10, 40, 80 mg/kg body weight) were administered to the mice formulated in <5% DMSO (Mediatech Inc., Manassas, VA, USA) and <0.2% Tween 80 (Croda Inc., Princeton, NJ, USA) at a volume not exceeding 1% of body weight by metal oral gavage (2 mm diameter with stainless steel bite protector, 18-gauge, 3.81 cm long). […] The mice were observed weekly until the completion of the study. The body weights of the mice were measured in grams using a Scout^TM Pro (Ohaus Corp., Pine Brook, NJ, USA) on day 0, 4, 8, 11, 14, 21, 28, 35, 42, 49, 56, 63, 70, 77, 83, and 90 after initial treatment. On day 90, all mice were anesthetized using isoflurane (USP-vaporizer method, Matrix VIP-3000, Covetrus, Dublin, OH, USA, exposure of animals in an anesthesia chamber at 3% isoflurane vaporization rate. Exposure time 2 min). Mice were then euthanized by cervical dislocation according to the 2020 AVMA Guidelines on Euthanasia and dissected. Mice organs (brain, liver, kidney, heart, lungs, spleen) were excised and weighed for histopathological examination. The organs were stored in 10% neutral buffered formalin (Avantor Science Central, Allentown, PA, USA) for 24 h and then transferred to 70% ethanol (AAPER ALCOHOL, Shelbyville, KY, USA). This study was performed following the OECD guideline 408 for the testing of chemicals.
On the day of sacrifice, mice were decapitated, and the blood was quickly collected into a green-topped Lithium Heparin 400 µL blood collection tube (BD Microtainer REF# 365965) as well as a purple-topped K2 EDTA (K2E) 500 µL blood collection tube (BD Microtainer, Cat# 365974) to ensure all blood samples were collected free of clots. The Li Heparin samples were immediately centrifuged at 13,000× g for 10 min, and the plasma was transferred to 1.5 mL Eppendorf tubes free of Li heparin for biochemical analysis. Plasma samples were analyzed for AST, ALT, ALP, glucose, BUN, and creatinine levels using the Beckman AU680 clinical chemistry analyzer system (Beckman Coulter, Atlanta, GA, USA). The ETDA samples were analyzed for hematological parameters, and WBC, RBC, Hgb, Hct, MCV, MCHC, and PLT were determined using the Siemens Advia 120 hematology analyzer (Siemens Healthcare Diagnostics Inc., Tarrytown, NY, USA). All blood samples were analyzed at the LSU School of Veterinary Medicine Clinical Pathology Laboratory at Baton Rouge, Louisiana.
Results for the hematological and biochemical parameters were analyzed separately by One-way Analysis of Variance (ANOVA), followed by multiple comparisons with Dunnett’s test. All statistical analyses were performed using GraphPad Prism version 8 software (San Diego, CA, USA). Data in this study were expressed as a mean ± SD (standard deviation) and mean ± SEM (standard error of mean). A probability value of <0.05 was considered statistically significant (* p < 0.05; ** p < 0.01; and *** p < 0.001).

[1] = female, 10mg/kg daily oral 90 days
[2] = female, 40mg/kg daily oral 90 days
[3] = female, 80mg/kg daily oral 90 days
[4] = male and female treatment groups, 90 days
[5] = male, 10mg/kg daily oral 90 days
[6] = male, 40mg/kg daily oral 90 days
[7] = male, 80mg/kg daily oral 90 days

CC/C=C\[C@H](O)[C@H](O)C1=C(C)C(=O)[C@]2(O1)C(=O)N[C@@](OC)(C(=O)c1ccccc1)[C@@H]2O [PsA, pseurotin A]
AST level versus control (all male dosing groups, 90 days): significantly lower | AST level versus control (female treatment groups, 90 days): significant reduction | HCT [1]: 48.5 ± 6.0% | HGB [1]: 12.5 ± 0.3 g/dL | MCHC [1]: 26.2 ± 3.0 g/dL | MCV [1]: 52.1 ± 5.0 fL | PLT [1]: 459.0 ± 99.1 103/μL | RBC-H [1]: 9.3 ± 0.3 106/μL | WBC-H [1]: 6.5 ± 0.6 103/μL | ALP, plasma [1]: 78.0 ± 3.8 U/L | ALT, plasma [1]: 34.3 ± 1.9 U/L | AST, plasma [1]: 61.7 ± 6.4 U/L | BUN, plasma [1]: 22.0 ± 0.6 mg/dL | CREAT (creatinine), plasma [1]: 0.2 ± 0.0 mg/dL | GLU (glucose), plasma [1]: 291.7 ± 6.5 mg/dL | ALP, plasma [2]: 68.0 ± 3.8 U/L | ALT, plasma [2]: 34.5 ± 1.9 U/L | AST, plasma [2]: 67.8 ± 7.1 U/L | BUN, plasma [2]: 17.5 ± 0.4 mg/dL | CREAT (creatinine), plasma [2]: < 0.2 ± 0.0 mg/dL | GLU (glucose), plasma [2]: 259.0 ± 5.7 mg/dL | ALP, plasma [3]: 86.8 ± 13.4 U/L | ALT, plasma [3]: 30.3 ± 3.4 U/L | AST, plasma [3]: 81.3 ± 17.8 U/L | BUN, plasma [3]: 18.5 ± 2.1 mg/dL | CREAT (creatinine), plasma [3]: 0.2 ± 0.0 mg/dL | GLU (glucose), plasma [3]: 235.3 ± 19.4 mg/dL | plasma ALT level versus control (female, all three treatment groups, 90 days): significantly lower | BUN level versus control (male 10 mg/kg, female 40 mg/kg and female 80 mg/kg groups, 90 days): significantly lower | MCV versus control (male 40 mg/kg group, 90 days): significantly higher | ALP and plasma glucose levels [4]: no significant changes | CREAT levels [4]: no significant change | WBC-H, RBC-H, HGB, HCT, MCHC, PLT versus control (male up to 80 mg/kg, female 10 mg/kg, 90 days): did not show any significant changes | HCT [5]: 41.0 ± 3.0% | HGB [5]: 11.8 ± 0.4 g/dL | MCHC [5]: 28.8 ± 2.5 g/dL | MCV [5]: 49.6 ± 2.5 fL | PLT [5]: 555.0 ± 147.7 103/μL | RBC-H [5]: 8.3 ± 0.6 106/μL | WBC-H [5]: 4.5 ± 1.0 103/μL | ALP, plasma [5]: 71.8 ± 4.7 U/L | ALT, plasma [5]: 28.3 ± 1.7 U/L | AST, plasma [5]: 57.8 ± 12.8 U/L | BUN, plasma [5]: 18.3 ± 0.7 mg/dL | CREAT (creatinine), plasma [5]: 0.2 ± 0.0 mg/dL | GLU (glucose), plasma [5]: 263.8 ± 9.9 mg/dL | HCT [6]: 47.4 ± 4.3% | HGB [6]: 11.9 ± 0.9 g/dL | MCHC [6]: 25.1 ± 3.3 g/dL | MCV [6]: 55.4 ± 4.8 fL | PLT [6]: 413.0 ± 111.2 103/μL | RBC-H [6]: 8.6 ± 0.8 106/μL | WBC-H [6]: 5.0 ± 1.8 103/μL | ALP, plasma [6]: 78.3 ± 5.2 U/L | ALT, plasma [6]: 28.5 ± 2.5 U/L | AST, plasma [6]: 42.8 ± 1.9 U/L | BUN, plasma [6]: 20.5 ± 0.8 mg/dL | CREAT (creatinine), plasma [6]: 0.2 ± 0.0 mg/dL | GLU (glucose), plasma [6]: 248.5 ± 12.0 mg/dL | HCT [7]: 47.8 ± 4.9% | HGB [7]: 12.5 ± 0.3 g/dL | MCHC [7]: 26.3 ± 2.2 g/dL | MCV [7]: 53.3 ± 5.1 fL | PLT [7]: 580.3 ± 119.8 103/μL | RBC-H [7]: 9.0 ± 0.1 106/μL | WBC-H [7]: 7.9 ± 1.4 103/μL | ALP, plasma [7]: 63.0 ± 3.4 U/L | ALT, plasma [7]: 48.0 ± 4.8 U/L | AST, plasma [7]: 48.5 ± 4.50 U/L | BUN, plasma [7]: 20.3 ± 0.2 mg/dL | CREAT (creatinine), plasma [7]: 0.2 ± 0.0 mg/dL | GLU (glucose), plasma [7]: 272.3 ± 15.4 mg/dL | ALT level versus control (treated males, 90 days): did not show a significant change
